# ChEMBL document CHEMBL4330071 (Eur J Med Chem, 2019)
# Tests used:
# [1] = biological target: RAC-alpha serine/threonine-protein kinase (Homo sapiens) (UniProt P31749); assay: Inhibition of human AKT1 assessed as residual activity at 10 uM using KGSGSGRPRTSSFAEG as substrate preincubated for 20 mins followed by [gamma-33P]-ATP addition and measured after 120 mins by Hotspot assay relative to control
# [2] = biological target: Aurora kinase A (Homo sapiens) (UniProt O14965); assay: Inhibition of human Aurora A assessed as residual activity at 10 uM using [H-LRRASLG] as substrate preincubated for 20 mins followed by [gamma-33P]-ATP addition and measured after 120 mins by Hotspot assay relative to control
# [3] = biological target: Serine/threonine-protein kinase B-raf (Homo sapiens) (UniProt P15056); assay: Inhibition of human BRAF assessed as residual activity at 10 uM using MEK1 (K97R) as substrate preincubated for 20 mins followed by [gamma-33P]-ATP addition and measured after 120 mins by Hotspot assay relative to control
# [4] = biological target: Tyrosine-protein kinase BTK (Homo sapiens, UniProt Q06187); assay: Inhibition of human BTK assessed as residual activity at 10 uM using KVEKIGEGTYGVVYK as substrate preincubated for 20 mins followed by [gamma-33P]-ATP addition and measured after 120 mins by Hotspot assay relative to control
# [5] = biological target: Calcium/calmodulin-dependent protein kinase type 1 (Homo sapiens) (UniProt Q14012); assay: Inhibition of human CAMK1A assessed as residual activity at 10 uM using KKALRRQETVDAL as substrate preincubated for 20 mins followed by [gamma-33P]-ATP addition and measured after 120 mins by Hotspot assay relative to control
# [6] = biological target: Cyclin-dependent kinase 4/cyclin D1 (Homo sapiens) (UniProt P11802+P24385); assay: Inhibition of human CDK4/cyclin-D1 assessed as residual activity at 10 uM using RB protein as substrate preincubated for 20 mins followed by [gamma-33P]-ATP addition and measured after 120 mins by Hotspot assay relative to control; type: protein-complex assay
# [7] = biological target: Cyclin-dependent kinase 7/ cyclin H (Homo sapiens) (UniProt P51946+P50613); assay: Inhibition of human CDK7/cyclin-H assessed as residual activity at 10 uM using MBP as substrate preincubated for 20 mins followed by [gamma-33P]-ATP addition and measured after 120 mins by Hotspot assay relative to control; type: protein-complex assay
# [8] = biological target: Discoidin domain-containing receptor 2 (Homo sapiens) (UniProt Q16832); assay: Inhibition of human DDR2 assessed as residual activity at 10 uM using KKSRGDYMTMQIG as substrate preincubated for 20 mins followed by [gamma-33P]-ATP addition and measured after 120 mins by Hotspot assay relative to control
# [9] = biological target: Macrophage colony-stimulating factor 1 receptor (Homo sapiens, UniProt P07333); assay: Inhibition of human FMS assessed as residual activity at 10 uM using poly[Glu:Tyr] (4:1) as substrate preincubated for 20 mins followed by [gamma-33P]-ATP addition and measured after 120 mins by Hotspot assay relative to control
# [10] = biological target: Mitogen-activated protein kinase 8 (Homo sapiens) (UniProt P45983); assay: Inhibition of human JNK1 assessed as residual activity at 10 uM using ATF2 as substrate preincubated for 20 mins followed by [gamma-33P]-ATP addition and measured after 120 mins by Hotspot assay relative to control
# [11] = biological target: Tyrosine-protein kinase ABL1 (Homo sapiens, UniProt P00519, F317I); assay: Binding affinity to human non-phosphorylated ABL1 F317I mutant (S229 to K512 residues) expressed in mammalian expression system after 60 mins by Kinomescan method
# [12] = biological target: T1, Tyrosine-protein kinase ABL1 (Homo sapiens, UniProt P00519, Q252H); assay: Binding affinity to human non-phosphorylated ABL1 Q252H mutant (S229 to K512 residues) expressed in mammalian expression system after 60 mins by Kinomescan method
# [13] = biological target: T1, Tyrosine-protein kinase ABL1; assay: Binding affinity to human phosphorylated ABL1 Q252H mutant expressed in mammalian expression system after 60 mins by Kinomescan method
# [14] = biological target: Mast/stem cell growth factor receptor Kit (Homo sapiens, UniProt P10721); assay: Binding affinity to wild-type human partial length KIT (I571 to D952 residues) expressed in bacterial expression system after 60 mins by Kinomescan method
# [15] = biological target: Fibroblast growth factor receptor 1 (Homo sapiens, UniProt P11362); assay: Inhibition of human FGFR1 using KKKSPGEYVNIEFG as substrate preincubated for 20 mins followed by [gamma-33P]-ATP addition and measured after 120 mins by Hotspot assay
# [16] = biological target: Tyrosine-protein kinase Lck (Homo sapiens, UniProt P06239); assay: Inhibition of human LCK using poly[Glu:Tyr] (4:1) as substrate preincubated for 20 mins followed by [gamma-33P]-ATP addition and measured after 120 mins by Hotspot assay
# [17] = biological target: Proto-oncogene tyrosine-protein kinase Src (Homo sapiens, UniProt P12931); assay: Inhibition of human c-SRC using poly[Glu:Tyr] (4:1) as substrate preincubated for 20 mins followed by [gamma-33P]-ATP addition and measured after 120 mins by Hotspot assay
# [18] = biological target: CDK6/cyclin D1 (Homo sapiens, UniProt Q00534); assay: Inhibition of human CDK6/cyclin-D1 using RB protein as substrate preincubated for 20 mins followed by [gamma-33P]-ATP addition and measured after 120 mins by Hotspot assay; type: protein-complex assay
# [19] = biological target: Discoidin domain-containing receptor 2 (Homo sapiens, UniProt Q16832); assay: Inhibition of human DDR2 using KKSRGDYMTMQIG as substrate preincubated for 20 mins followed by [gamma-33P]-ATP addition and measured after 120 mins by Hotspot assay
# [20] = biological target: Vascular endothelial growth factor receptor 2 (Homo sapiens, UniProt P35968); assay: Inhibition of human KDR using poly[Glu:Tyr] (4:1) as substrate preincubated for 20 mins followed by [gamma-33P]-ATP addition and measured after 120 mins by Hotspot assay
# [21] = biological target: Cyclin-dependent kinase 7/ cyclin H (Homo sapiens, UniProt P50613); assay: Inhibition of human CDK7/cyclin-H using MBP as substrate preincubated for 20 mins followed by [gamma-33P]-ATP addition and measured after 120 mins by Hotspot assay; type: protein-complex assay
# [22] = test system: HL-60; assay: Growth inhibition of human HL60 cells harboring WT FLT3 at 10 uM after 72 hrs by CellTiter-Glo assay relative to control; type: functional; settings: HL-60, 72 h, read-out: GI
# [23] = test system: RS4-11; assay: Growth inhibition of human RS4:11 cells harboring WT FLT3 at 10 uM after 72 hrs by CellTiter-Glo assay relative to control; type: functional; settings: RS4-11, 72 h, read-out: GI
# [24] = test system: MV4-11; assay: Induction of apoptosis in human MV4-11 cells assessed as early apoptotic cells at 0.1 uM after 24 hrs by Annexin V-FITC/propidium iodide staining based flow cytometric analysis (reference value: 3.39%); type: functional
# [25] = test system: MV4-11; assay: Induction of apoptosis in human MV4-11 cells assessed as necrotic cells at 1 uM after 24 hrs by Annexin V-FITC/propidium iodide staining based flow cytometric analysis (reference value: 0%); type: functional
# [26] = Intrinsic clearance in human liver microsomes assessed per mg protein at 1 uM after 5 to 60 mins in presence of NADPH by LC-MS/MS analysis; type: ADME, Microsome; settings: read-out: CLH
# Sequence of Proto-oncogene tyrosine-protein kinase Src (P12931 2-536 limits assumed): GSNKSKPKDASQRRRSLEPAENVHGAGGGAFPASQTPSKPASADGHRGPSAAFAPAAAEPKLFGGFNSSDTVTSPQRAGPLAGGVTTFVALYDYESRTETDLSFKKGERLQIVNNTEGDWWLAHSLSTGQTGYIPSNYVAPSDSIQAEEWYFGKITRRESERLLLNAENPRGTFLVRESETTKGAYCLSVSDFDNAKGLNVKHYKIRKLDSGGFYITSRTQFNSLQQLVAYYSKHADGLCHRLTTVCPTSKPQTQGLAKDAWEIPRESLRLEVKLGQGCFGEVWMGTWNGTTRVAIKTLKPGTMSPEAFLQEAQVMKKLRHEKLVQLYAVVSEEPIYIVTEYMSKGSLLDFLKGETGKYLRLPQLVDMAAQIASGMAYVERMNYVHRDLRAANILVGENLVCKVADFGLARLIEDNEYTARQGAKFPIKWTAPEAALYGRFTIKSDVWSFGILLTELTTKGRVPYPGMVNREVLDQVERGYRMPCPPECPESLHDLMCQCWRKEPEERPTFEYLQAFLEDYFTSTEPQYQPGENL
# Sequence of Aurora kinase A (Homo sapiens) (O14965 whole entry): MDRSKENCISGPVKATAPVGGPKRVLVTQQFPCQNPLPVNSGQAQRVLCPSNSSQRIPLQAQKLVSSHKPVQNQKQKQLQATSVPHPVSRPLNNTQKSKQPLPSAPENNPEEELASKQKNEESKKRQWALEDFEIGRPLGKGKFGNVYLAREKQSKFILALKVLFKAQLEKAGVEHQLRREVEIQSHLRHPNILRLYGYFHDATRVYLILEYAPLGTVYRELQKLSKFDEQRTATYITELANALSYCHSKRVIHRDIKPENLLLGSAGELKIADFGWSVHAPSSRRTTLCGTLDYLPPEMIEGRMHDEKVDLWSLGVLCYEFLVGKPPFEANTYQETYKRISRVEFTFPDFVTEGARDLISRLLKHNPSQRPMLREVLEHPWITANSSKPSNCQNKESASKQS
# Sequence of Discoidin domain-containing receptor 2 (Homo sapiens) (Q16832 whole entry, the tested form may be a part): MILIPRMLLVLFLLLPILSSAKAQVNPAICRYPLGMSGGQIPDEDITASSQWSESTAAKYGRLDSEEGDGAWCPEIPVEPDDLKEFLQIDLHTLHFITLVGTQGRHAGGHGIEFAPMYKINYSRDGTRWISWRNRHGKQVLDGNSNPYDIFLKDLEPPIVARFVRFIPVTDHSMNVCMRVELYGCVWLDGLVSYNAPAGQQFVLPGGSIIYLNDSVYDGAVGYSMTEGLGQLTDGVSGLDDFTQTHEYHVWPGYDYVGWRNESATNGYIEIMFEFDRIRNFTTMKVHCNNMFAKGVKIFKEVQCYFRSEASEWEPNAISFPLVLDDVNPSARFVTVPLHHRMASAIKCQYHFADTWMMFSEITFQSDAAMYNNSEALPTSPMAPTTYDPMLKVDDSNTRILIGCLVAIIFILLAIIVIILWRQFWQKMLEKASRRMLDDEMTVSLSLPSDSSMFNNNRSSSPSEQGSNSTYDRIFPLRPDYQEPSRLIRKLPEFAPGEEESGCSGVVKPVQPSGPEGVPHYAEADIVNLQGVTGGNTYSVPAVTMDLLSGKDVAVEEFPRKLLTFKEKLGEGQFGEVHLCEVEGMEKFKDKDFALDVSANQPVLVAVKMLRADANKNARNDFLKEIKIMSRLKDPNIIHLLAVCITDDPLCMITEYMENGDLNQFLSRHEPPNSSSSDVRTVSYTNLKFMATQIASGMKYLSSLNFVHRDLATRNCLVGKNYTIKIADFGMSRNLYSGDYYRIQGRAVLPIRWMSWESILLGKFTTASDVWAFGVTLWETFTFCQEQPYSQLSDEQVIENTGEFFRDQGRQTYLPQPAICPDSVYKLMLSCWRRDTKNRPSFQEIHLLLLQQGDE
# Sequence of Discoidin domain-containing receptor 2 (Q16832 whole entry, the tested form may be a part): as above
# Sequence of Tyrosine-protein kinase Lck (P06239 whole entry): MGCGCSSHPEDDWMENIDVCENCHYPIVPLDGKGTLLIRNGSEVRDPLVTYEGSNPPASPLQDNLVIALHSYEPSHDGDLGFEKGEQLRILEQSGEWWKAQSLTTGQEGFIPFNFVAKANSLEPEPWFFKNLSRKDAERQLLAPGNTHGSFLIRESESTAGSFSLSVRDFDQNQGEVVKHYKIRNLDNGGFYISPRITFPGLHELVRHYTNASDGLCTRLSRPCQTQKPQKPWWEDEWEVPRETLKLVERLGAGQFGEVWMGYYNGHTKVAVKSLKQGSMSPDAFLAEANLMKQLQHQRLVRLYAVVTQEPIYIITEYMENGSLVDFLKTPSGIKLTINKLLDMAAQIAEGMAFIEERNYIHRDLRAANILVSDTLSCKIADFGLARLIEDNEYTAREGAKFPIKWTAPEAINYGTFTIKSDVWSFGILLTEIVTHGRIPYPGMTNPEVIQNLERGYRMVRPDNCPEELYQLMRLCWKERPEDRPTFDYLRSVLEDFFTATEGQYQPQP
# Sequence of Serine/threonine-protein kinase B-raf (Homo sapiens) (P15056 whole entry): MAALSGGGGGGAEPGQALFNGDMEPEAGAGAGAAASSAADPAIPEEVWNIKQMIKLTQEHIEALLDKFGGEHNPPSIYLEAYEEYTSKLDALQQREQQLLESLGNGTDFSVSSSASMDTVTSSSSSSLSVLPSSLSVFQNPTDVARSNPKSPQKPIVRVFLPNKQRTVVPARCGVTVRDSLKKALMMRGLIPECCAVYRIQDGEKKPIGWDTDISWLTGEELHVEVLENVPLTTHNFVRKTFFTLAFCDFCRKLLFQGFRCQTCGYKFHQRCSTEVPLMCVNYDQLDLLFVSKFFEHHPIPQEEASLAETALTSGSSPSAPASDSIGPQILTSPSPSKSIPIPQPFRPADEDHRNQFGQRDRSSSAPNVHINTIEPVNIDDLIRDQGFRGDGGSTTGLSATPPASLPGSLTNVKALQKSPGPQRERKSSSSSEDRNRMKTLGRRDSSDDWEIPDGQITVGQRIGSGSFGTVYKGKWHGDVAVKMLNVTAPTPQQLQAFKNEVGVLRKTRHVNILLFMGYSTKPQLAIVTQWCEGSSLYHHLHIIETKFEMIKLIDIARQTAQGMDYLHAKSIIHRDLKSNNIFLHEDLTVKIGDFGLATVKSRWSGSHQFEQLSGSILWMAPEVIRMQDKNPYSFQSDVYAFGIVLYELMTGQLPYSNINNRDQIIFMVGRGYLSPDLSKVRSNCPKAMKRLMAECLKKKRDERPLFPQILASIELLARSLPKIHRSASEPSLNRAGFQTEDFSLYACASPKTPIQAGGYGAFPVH
# Sequence of Fibroblast growth factor receptor 1 (P11362 whole entry): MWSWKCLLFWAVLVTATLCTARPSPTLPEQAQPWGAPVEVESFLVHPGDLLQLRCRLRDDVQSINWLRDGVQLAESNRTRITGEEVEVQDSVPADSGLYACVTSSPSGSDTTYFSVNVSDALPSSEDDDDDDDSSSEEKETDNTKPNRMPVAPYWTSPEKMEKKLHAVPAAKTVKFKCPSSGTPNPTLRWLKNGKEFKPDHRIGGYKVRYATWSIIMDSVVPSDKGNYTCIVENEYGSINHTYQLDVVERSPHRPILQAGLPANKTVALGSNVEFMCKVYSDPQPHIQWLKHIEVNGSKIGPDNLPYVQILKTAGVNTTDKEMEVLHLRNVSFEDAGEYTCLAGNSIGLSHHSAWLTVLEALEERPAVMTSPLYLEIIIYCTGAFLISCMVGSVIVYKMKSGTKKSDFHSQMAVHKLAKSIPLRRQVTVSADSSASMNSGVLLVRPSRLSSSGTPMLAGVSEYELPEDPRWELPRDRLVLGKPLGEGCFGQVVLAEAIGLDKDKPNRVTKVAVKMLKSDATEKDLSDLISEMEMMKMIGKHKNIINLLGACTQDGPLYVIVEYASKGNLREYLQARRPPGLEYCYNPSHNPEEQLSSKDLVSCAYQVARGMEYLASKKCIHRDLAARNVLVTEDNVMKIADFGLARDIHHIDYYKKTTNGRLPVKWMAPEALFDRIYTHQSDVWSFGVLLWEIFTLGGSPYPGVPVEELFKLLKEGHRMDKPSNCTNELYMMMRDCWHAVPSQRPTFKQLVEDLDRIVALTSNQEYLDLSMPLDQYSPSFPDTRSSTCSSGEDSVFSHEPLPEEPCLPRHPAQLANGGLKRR
# Sequence of Calcium/calmodulin-dependent protein kinase type 1 (Homo sapiens) (Q14012 whole entry, looked up): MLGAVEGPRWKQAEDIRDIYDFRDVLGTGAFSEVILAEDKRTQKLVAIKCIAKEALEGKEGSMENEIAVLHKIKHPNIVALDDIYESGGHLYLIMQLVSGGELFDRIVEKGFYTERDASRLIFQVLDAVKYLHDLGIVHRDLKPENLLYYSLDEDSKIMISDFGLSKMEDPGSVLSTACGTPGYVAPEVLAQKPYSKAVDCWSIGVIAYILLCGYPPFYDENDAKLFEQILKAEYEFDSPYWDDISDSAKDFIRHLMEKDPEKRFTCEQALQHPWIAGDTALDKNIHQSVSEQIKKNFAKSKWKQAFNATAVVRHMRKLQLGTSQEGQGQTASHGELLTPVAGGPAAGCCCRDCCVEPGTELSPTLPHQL
# Sequence of RAC-alpha serine/threonine-protein kinase (Homo sapiens) (P31749 whole entry): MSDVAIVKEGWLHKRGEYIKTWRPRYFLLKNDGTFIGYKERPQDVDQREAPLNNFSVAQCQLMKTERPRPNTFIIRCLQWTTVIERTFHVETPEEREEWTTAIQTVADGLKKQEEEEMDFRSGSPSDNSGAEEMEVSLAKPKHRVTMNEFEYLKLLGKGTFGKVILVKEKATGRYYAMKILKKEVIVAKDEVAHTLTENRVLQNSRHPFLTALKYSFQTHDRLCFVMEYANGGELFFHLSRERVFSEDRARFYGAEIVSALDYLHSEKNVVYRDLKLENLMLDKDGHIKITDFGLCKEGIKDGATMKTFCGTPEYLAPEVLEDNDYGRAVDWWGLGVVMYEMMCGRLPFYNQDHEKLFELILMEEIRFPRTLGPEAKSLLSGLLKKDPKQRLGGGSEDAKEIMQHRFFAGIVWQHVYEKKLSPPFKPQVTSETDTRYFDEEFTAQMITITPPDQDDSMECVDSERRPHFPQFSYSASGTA
structure (smiles),measurement,setting,value
CN1CCC(Nc2ccc(C(=O)Nc3cc(-c4cc(C#N)cs4)n[nH]3)cc2)CC1,Activity,[1],90.7%
same,Activity,[2],58.4%
same,Activity,[3],67.7%
same,Activity,[4],12.9%
same,Activity,[5],48.5%
same,Activity,[6],49.2%
same,Activity,[7],27.1%
same,Activity,[8],20.6%
same,Activity,[9],4.66%
same,Activity,[10],89.6%
same,Kd,[11],> 10000 nM
same,Kd,[12],350 nM
same,Kd,[13],300 nM
same,Kd,[14],2.2 nM
same,IC50,[15],962 nM
same,IC50,[16],1010 nM
same,IC50,[17],2400 nM
same,IC50,[18],3060 nM
same,IC50,[19],3470 nM
same,IC50,[20],6260 nM
same,IC50,[21],7910 nM
same,inhibition of growth at 10 µM,[22],10.2%
same,inhibition of growth at 10 µM,[23],1.33%
same,Activity,[24],24.27%
same,Activity,[25],6.35%
same,microsomal CLint at 1 µM,[26],22.4 µL/min/mg
